Test results: patent US20250115583A1, “BICYCLIC INDAZOLE GLUCOCORTICOID RECEPTOR ANTAGONISTS” (Corcept Therapeutics Incorporated, priority 2021, published 2025)

Target: glucocorticoid receptor (Homo sapiens (Human), UniProt P04150)
Test: HepG2 TAT assay: inhibition of dexamethasone-induced tyrosine aminotransferase (TAT) activity
Assay type: cell-based
Conditions: HepG2 cells, challenge of 100 nM dexamethasone, 18-24 hr; IC50 converted to Ki by Cheng and Prusoff equation
In short: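 Cells lysed 15 min at 4 °C; TAT enzyme reaction 2 h at 37 °C, stopped with KOH, 30 min further at 37 °C. Inhibition fitted to 4-parameter logistic.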

Sequence of glucocorticoid receptor (P04150 whole entry): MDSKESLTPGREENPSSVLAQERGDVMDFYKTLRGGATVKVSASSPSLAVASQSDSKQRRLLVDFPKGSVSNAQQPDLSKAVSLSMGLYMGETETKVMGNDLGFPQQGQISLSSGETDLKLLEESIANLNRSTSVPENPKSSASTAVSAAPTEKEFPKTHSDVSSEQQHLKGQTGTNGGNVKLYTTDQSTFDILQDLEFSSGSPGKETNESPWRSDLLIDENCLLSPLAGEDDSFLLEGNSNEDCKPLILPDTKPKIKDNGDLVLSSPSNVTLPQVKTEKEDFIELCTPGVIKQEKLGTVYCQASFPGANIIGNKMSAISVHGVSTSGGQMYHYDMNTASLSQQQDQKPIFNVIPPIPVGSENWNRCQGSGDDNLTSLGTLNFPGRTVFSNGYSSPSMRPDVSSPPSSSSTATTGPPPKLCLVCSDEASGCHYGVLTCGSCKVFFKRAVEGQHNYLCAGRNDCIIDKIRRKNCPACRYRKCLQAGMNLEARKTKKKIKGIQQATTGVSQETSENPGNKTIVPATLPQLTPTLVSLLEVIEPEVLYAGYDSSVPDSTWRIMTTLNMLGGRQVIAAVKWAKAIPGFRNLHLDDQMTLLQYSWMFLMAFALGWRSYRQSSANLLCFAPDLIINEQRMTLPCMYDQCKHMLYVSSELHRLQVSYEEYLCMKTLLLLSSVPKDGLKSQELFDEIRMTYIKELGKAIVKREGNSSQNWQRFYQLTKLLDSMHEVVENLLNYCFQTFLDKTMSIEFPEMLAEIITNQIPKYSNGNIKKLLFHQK

SMILES | Ki [µM]
CCCn1ncc(S(=O)(=O)N2CC3CC(OC)(c4ccccc4)CC3(c3cc4cnn(-c5ccc(F)cc5)c4cc3C)C2)n1 (centres unmarked) [Example 27] | 0.078
COC1(c2ccccc2)CC2CN(S(=O)(=O)C3(C)CC3)CC2(c2cc3cnn(-c4ccc(F)cc4)c3cc2C)C1 (centres unmarked) [Example 28] | 0.032
COC1(c2ccccc2)CC2CN(S(=O)(=O)C(C)C)CC2(c2cc3cnn(-c4ccc(F)cc4)c3cc2C)C1 (centres unmarked) [Example 30] | 0.032
COC1(c2ccccc2)CC2CN(S(=O)(=O)c3ccn(C)n3)CC2(c2cc3cnn(-c4ccc(F)cc4)c3cc2C)C1 (centres unmarked) [Example 31] | 0.13
CO[C@]1(c2ccccc2)C[C@@H]2CN(C(C)=O)C[C@]2(c2cc3cnn(-c4ccc(F)cc4)c3cc2C)C1 [Example 33] | 0.22
COC1CC2CN(S(C)(=O)=O)CC2(c2cc3cnn(-c4ccc(F)cc4)c3cc2C)C1 (centres unmarked) [Example 34, 1-(4-fluorophenyl)-5-(5-methoxy-2-(methylsulfonyl)hexahydrocyclopenta[c]pyrrol-3a(1H)-yl)-6-methyl-1H-indazole] | 0.8
Cc1cc2c(cnn2-c2ccc(F)cc2)cc1C12CC(OCc3ccccc3)CC1CN(C(=O)OC(C)(C)C)C2 (centres unmarked) [Example 35, tert-butyl 5-(benzyloxy)-3a-(1-(4-fluorophenyl)-6-methyl-1H-indazol-5-yl)hexahydrocyclopenta[c]pyrrole-2(1H)-carboxylate] | 0.16
Cc1cc2c(cnn2-c2ccc(F)cc2)cc1C12CC(Oc3ccccc3)CC1CN(S(C)(=O)=O)C2 (centres unmarked) [Example 36, 1-(4-fluorophenyl)-6-methyl-5-(2-(methylsulfonyl)-5-phenoxyhexahydrocyclopenta[c]pyrrol-3a(1H)-yl)-1H-indazole] | 0.072
Cc1cc2c(cnn2-c2ccc(F)cc2)cc1C12CC(Oc3ccccc3)CC1CN(S(C)(=O)=O)C2 (centres unmarked) [Example 37, 1-(4-fluorophenyl)-6-methyl-5-(2-(methylsulfonyl)-5-phenoxyhexahydrocyclopenta[c]pyrrol-3a(1H)-yl)-1H-indazole] | 0.17
Cc1cc2c(cnn2-c2ccc(F)cc2)cc1C12CC(Oc3ccccc3)CC1CN(S(C)(=O)=O)C2 (centres unmarked) [Example 38] | 0.097
Cc1cc2c(cnn2-c2ccc(F)cc2)cc1C12CC(Oc3ccccc3)CC1CN(C(=O)c1ccccc1)C2 (centres unmarked) [Example 39] | 0.19
CC(=O)N1CC2CC(Oc3ccccc3)CC2(c2cc3cnn(-c4ccc(F)cc4)c3cc2C)C1 (centres unmarked) [Example 40] | 0.42
Cc1cc2c(cnn2-c2ccc(F)cc2)cc1C12CC(Oc3ccccn3)CC1CN(S(C)(=O)=O)C2 (centres unmarked) [Example 41] | 0.11
Cc1cc2c(cnn2-c2ccc(F)cc2)cc1C12CC(Oc3cccnc3)CC1CN(S(C)(=O)=O)C2 (centres unmarked) [Example 42] | 0.26
CCCn1cc(S(=O)(=O)N2CC3CC(Oc4ccccc4)CC3(c3cc4cnn(-c5ccc(F)cc5)c4cc3C)C2)cn1 (centres unmarked) [Example 43] | 0.041
Cc1cc2c(cnn2-c2ccc(F)cc2)cc1C12CC(Oc3ccccc3)CC1CN(S(=O)(=O)c1cnn(C)c1)C2 (centres unmarked) [Example 44] | 0.37
Cc1cc2c(cnn2-c2ccc(F)cc2)cc1C12CC(Oc3ccccc3)CC1CN(C(=O)OC(C)(C)C)C2 (centres unmarked) [Example 45] | 0.096
Cc1cc2c(cnn2-c2ccc(F)cc2)cc1C12CC(c3ccccc3)CC1CN(S(C)(=O)=O)C2 (centres unmarked) [Example 46, 1-(4-fluorophenyl)-6-methyl-5-(2-(methylsulfonyl)-5-phenylhexahydrocyclopenta[c]pyrrol-3a(1H)-yl)-1H-indazole] | 0.087
Cc1cc2c(cnn2-c2ccc(F)cc2)cc1C12CN(S(=O)(=O)c3cnn(C)n3)CC1C2CO (centres unmarked) [Example 47, (1-(1-(4-fluorophenyl)-6-methyl-1H-indazol-5-yl)-3-((2-methyl-2H-1,2,3-triazol-4-yl)sulfonyl)-3-azabicyclo[3.1.0]hexan-6-yl)methanol] | 0.27

SMILES | Ki [µM]
Cc1cc2c(cnn2-c2ccc(F)cc2)cc1C12CN(S(=O)(=O)c3cnn(C)n3)CC1C2COc1ccccn1 (centres unmarked) [Example 50, 1-(4-fluorophenyl)-6-methyl-5-(3-((2-methyl-2H-1,2,3-triazol-4-yl)sulfonyl)-6-((pyridin-2-yloxy)methyl)-3-azabicyclo[3.1.0]hexan-1-yl)-1H-indazole] | 0.68
Cc1cc2c(cnn2-c2ccc(F)cc2)cc1[C@]12CN(S(=O)(=O)c3cnn(C)n3)C[C@H]1[C@@H]2C(=O)NC1CCC1 [Example 60] | 0.2
Cc1cc2c(cnn2-c2ccc(F)cc2)cc1[C@@]12CN(S(=O)(=O)c3cnn(C)n3)C[C@@H]1[C@H]2C(=O)NC1CCCC1 [Example 61] | 0.2
Cc1cc2c(cnn2-c2ccc(F)cc2)cc1[C@]12CN(S(=O)(=O)c3cnn(C)n3)C[C@H]1[C@@H]2C(=O)Nc1ccccc1 [Example 62] | 0.038
Cc1cccc(NC(=O)[C@H]2[C@@H]3CN(S(=O)(=O)c4cnn(C)n4)C[C@@]32c2cc3cnn(-c4ccc(F)cc4)c3cc2C)c1 [Example 63] | 0.088
Cc1cc2c(cnn2-c2ccc(F)cc2)cc1[C@]12CN(S(=O)(=O)c3cnn(C)n3)C[C@H]1[C@@H]2C(=O)N(C)c1ccccc1 [Example 64] | 0.13
CCNC(=O)[C@@H]1[C@H]2CN(S(=O)(=O)c3cnn(C)n3)C[C@]21c1cc2cnn(-c3ccc(F)cc3)c2cc1C [Example 65] | 0.43
Cc1cc2c(cnn2-c2ccc(F)cc2)cc1[C@@]12CN(S(=O)(=O)c3cnn(C)n3)C[C@@H]1[C@H]2C(=O)NCC(C)C [Example 66] | 0.15
Cc1cc2c(cnn2-c2ccc(F)cc2)cc1[C@@]12CN(S(C)(=O)=O)C[C@@H]1[C@H]2C(=O)Nc1ccc(F)cn1 [Example 67] | 0.084
Cc1cc2c(cnn2-c2ccc(F)cc2)cc1[C@@]12CN(S(=O)(=O)c3cnn(C)n3)C[C@@H]1[C@H]2c1ccccc1 [Example 70] | 0.024
Cc1cc2c(cnn2-c2ccc(F)cc2)cc1[C@@]12CN(S(=O)(=O)c3cnn(C)n3)C[C@@H]1[C@H]2c1ccccc1 [Example 71] | 0.015
Cc1cc2c(cnn2-c2ccc(F)cc2)cc1[C@]12CN(S(=O)(=O)c3cnn(C)n3)C[C@H]1[C@@H]2c1ccccc1 [Example 72] | 0.16
Cc1cc2c(cnn2-c2ccc(F)cc2)cc1[C@]12CN(S(=O)(=O)c3cnn(C)c3)C[C@H]1[C@@H]2c1ccccc1 [Example 73] | 0.036
CCn1ncc(S(=O)(=O)N2C[C@H]3[C@H](c4ccccc4)[C@@]3(c3cc4cnn(-c5ccc(F)cc5)c4cc3C)C2)n1 [Example 74] | 0.015
CCCn1ncc(S(=O)(=O)N2C[C@H]3[C@H](c4ccccc4)[C@@]3(c3cc4cnn(-c5ccc(F)cc5)c4cc3C)C2)n1 [Example 75] | 0.025
Cc1cc2c(cnn2-c2ccc(F)cc2)cc1[C@@]12CN(S(C)(=O)=O)C[C@@H]1[C@H]2c1ccccc1 [Example 77] | 0.039
Cc1cc2c(cnn2-c2ccc(F)cc2)cc1[C@]12CN(S(=O)(=O)c3cncc(F)c3)C[C@H]1[C@@H]2c1ccccc1 [Example 78] | 0.025
COCCn1cc(S(=O)(=O)N2C[C@H]3[C@H](c4ccccc4)[C@@]3(c3cc4cnn(-c5ccc(F)cc5)c4cc3C)C2)cn1 [Example 79] | 0.033
Cc1cc2c(cnn2-c2ccc(F)cc2)cc1[C@]12CN(S(=O)(=O)c3cnn(C(C)C)n3)C[C@H]1[C@@H]2c1ccccc1 [Example 80] | 0.023

SMILES | Ki [µM]
Cc1cc2c(cnn2-c2ccc(F)cc2)cc1[C@@]12CN(S(=O)(=O)C3CC3)C[C@@H]1[C@H]2c1ccccc1 [Example 85] | 0.021
COCCS(=O)(=O)N1C[C@@H]2[C@@H](c3ccccc3)[C@]2(c2cc3cnn(-c4ccc(F)cc4)c3cc2C)C1 [Example 86] | 0.032
Cc1cc2c(cnn2-c2ccc(F)cc2)cc1[C@]12CN(S(=O)(=O)N3CCOCC3)C[C@H]1[C@@H]2c1ccccc1 [Example 87] | 0.02
Cc1cc2c(cnn2-c2ccc(F)cc2)cc1[C@]12CN(S(=O)(=O)C3CCOCC3)C[C@H]1[C@@H]2c1ccccc1 [Example 88] | 0.047
Cc1cc2c(cnn2-c2ccc(F)cc2)cc1[C@@]12CN(S(=O)(=O)c3ccccc3)C[C@@H]1[C@H]2c1ccccc1 [Example 89] | 0.017
Cc1cc2c(cnn2-c2ccc(F)cc2)cc1[C@@]12CN(S(=O)(=O)c3cccnc3)C[C@@H]1[C@H]2c1ccccc1 [Example 90] | 0.014
Cc1cc2c(cnn2-c2ccc(F)cc2)cc1[C@@]12CN(S(=O)(=O)c3cncs3)C[C@@H]1[C@H]2c1ccccc1 [Example 91] | 0.022
CCn1ccc(S(=O)(=O)N2C[C@@H]3[C@@H](c4ccccc4)[C@]3(c3cc4cnn(-c5ccc(F)cc5)c4cc3C)C2)n1 [Example 92] | 0.0095
Cc1cc2c(cnn2-c2ccc(F)cc2)cc1[C@]12CN(S(=O)(=O)CC3CC3)C[C@H]1[C@@H]2c1ccccc1 [Example 93] | 0.029
CCS(=O)(=O)N1C[C@@H]2[C@@H](c3ccccc3)[C@]2(c2cc3cnn(-c4ccc(F)cc4)c3cc2C)C1 [Example 94] | 0.031
Cc1cc2c(cnn2-c2ccc(F)cc2)cc1[C@]12CN(S(=O)(=O)c3cnn(C)c3)C[C@H]1[C@@H]2c1cccc(Cl)c1 [Example 96] | 0.11
Cc1cc2c(cnn2-c2ccc(F)cc2)cc1[C@]12CN(S(=O)(=O)c3cn(C)nn3)C[C@H]1[C@@H]2c1ccccc1 [Example 97] | 0.032
Cc1cc2c(cnn2-c2ccc(F)cc2)cc1[C@@]12CN(S(=O)(=O)NCC(C)C)C[C@@H]1[C@H]2c1ccccc1 [Example 100] | 0.082
Cc1cc2c(cnn2-c2ccc(F)cc2)cc1[C@@]12CN(S(=O)(=O)C(C)C)C[C@@H]1[C@H]2c1ccccc1 [Example 101] | 0.041
Cc1cc2c(cnn2-c2ccc(F)cc2)cc1[C@@]12CN(S(=O)(=O)N3CCCCC3)C[C@@H]1[C@H]2c1ccccc1 [Example 102] | 0.026
Cc1cc2c(cnn2-c2ccc(F)cc2)cc1[C@@]12CN(S(=O)(=O)N3CC(C#N)C3)C[C@@H]1[C@H]2c1ccccc1 [Example 103] | 0.027
Cc1cc2c(cnn2-c2ccc(F)cc2)cc1[C@@]12CN(S(=O)(=O)CC(C)C)C[C@@H]1[C@H]2c1ccccc1 [Example 104] | 0.03
Cc1cc2c(cnn2-c2ccc(F)cc2)cc1[C@@]12CN(S(=O)(=O)N3CCC3)C[C@@H]1[C@H]2c1ccccc1 [Example 105] | 0.014
